“Also recorded” adds a separate entry of the source.
Key:
[1] = system: Human retinal pigment epithelial cells; test: 14C-labeled lipid efflux from RPE cells with HDL, apoA-I or apoA-I vesicles; format: cell-based; details: basal chamber, 36 hours, vs Control; FIG. 19
Experimental: The present inventors have created liposomes comprising apoA-I (artificial preβ1 HDL). Artificial discoidal apoA-I liposomes comprising purified human plasma apoAI, the saturated phospholipid dimyristoyl-L-α-phoshatidylcholine (DMPC) and cholesterol were constructed by the sodium cholate dialysis method. Liposomes were prepared using a molar ratio of approximately 1/5/95, apoA-I/free cholesterol/DMPC. Human retinal pigment epithelial cells grown on 6 well laminin coated Transwell® plates were fed ^14C-docosahexaenoic acid labeled photoreceptor outer segments in medium containing 5% lipoprotein free fetal bovine serum for 36 hours (apical chamber). Basal chambers contained serum free medium and either no human high density lipoprotein (HDL) (Control), 100 μg/ml of human HDL, pure human apoA-I, or human apoA-I vesicles. An aliquot of the basal medium was subjected to liquid scintillation counting. Wells were treated in triplicate. HDL stimulated ^14C-labeled lipid efflux by about 60%.

[2] = system: apo E secretion from RPE cells; test: Apo E secretion into basal media of RPE cells, western blot; format: cell-based, human; details: 36 hour incubation, both chambers, T3 10^-7 M, 22 (R) hydroxycholesterol 2.5x10^-6 M, cis retinoic acid 10^-7 M (10^-6 M elsewhere in the source), FIG. 6
Experimental: Primary cultures of normal human RPE cells from passages 5 to 10 were used for the experiments described. RPE cells were grown to confluence on laminin-coated 6 well Transwell tissue culture plates (Costar) with DMEM-H21 containing 10% fetal bovine serum, 2 mM glutamine, 50 μg/ml gentamicin and 2.5 mg/ml fungizone in the top and bottom chambers. […] Cells were grown for at least 1 week at confluence prior to drug treatment. Cells to be treated with drugs were incubated in serum free DMEM-H21 prior to drug addition. Drug treatments were in serum free DMEM-H21 with or without 10^−7 M thyroid hormone (T3), 2.5×10^−6 M 22 (R) hydroxycholesterol, or 10^−7 M cis retinoic acid in both chambers for 36 hours.
Total protein content was determined by a modified Lowry assay (Bio-Rad DC kit, Richmond, Calif.). Concentrated media (50 μg protein) was made to Start Buffer (0.025 M NaCl, 0.010 M tris (pH 8.5), 5 mM MnCl2) and adsorbed onto a 0.1 ml column containing Heparin-Sepharose CL-4B (Pharmacia, Uppsala, Sweden). Following a 2 ml wash in Start Buffer, the apo E containing bound fraction was eluted with 0.5M NaCl in Start buffer. The eluate was concentrated to 20 μl and buffer-exchanged to SalEN by centrifugal ultrafiltration (Biomax, 5k MCO, Millipore, Bedford, Mass.). Apo E was resolved by tris-tricine buffered SDS-PAGE (5-25% linear acrylamide gradient) and proteins electrophoetically transferred (55V, 18 h) to nitrocelluose membrane filters (Schleicher and Shuell, Keen, N.H.). Membranes were blocked with 10% bovine serum albumin at room temperature and probed with 1% goat anti-human apo E antiserum (18 h, 3° C.) prepared in 0.15% NaCl, 1 mM EDTA (pH 7.4), 0.1% Triton X-100 (SalET). The primary-bound anti-apo E antibodies were detected colorimetrically with horseradish peroxidase conjugated rabbit anti-goat Ig (H+L) and NiCl2-enhanced diaminobenzine staining. Stained bands were compared densitometrically from the digitized scanned image (NIH Image, v.1.62).
In order to distinguish apical (A) from basally (B) secreted apo E, RPE cells were cultured on laminin-coated Transwell plates. […] Total protein and apo E-specific protein concentrations were measured from media pooled and concentrated from 3-6 replicate wells. To assess apo E-specific secretion, apo E was purified from conditioned media by heparin-sepharose affinity chromatography and visualized by western blotting.
Since RPE cells express lxr α as well as thyroid hormone receptors (TRs) and retinoid-X-receptors (RXRs), the effect of 10^−7 M T3, 2.5×10^−6 M 22 (R) hydroxycholesterol (HC) (an lxr α agonist), or 10^−7 M cis retinoic acid (cRA) (an RXR agonist) on apo E secretion from RPE cells was tested. FIG. 6 illustrates the same experimental procedure as described above, but with basal and apical media both containing the following compounds for a 36 hour incubation: T3 (10^−7) M (T); 9 cis-RA (10^−6) M (RA); and 22 (R) hydroxycholesterol 2.5 (10^−6) M (HC).
Control (C) refers to no drug addition; T refers to 10^−7 M T3; RA refers to 10^−7 M cis retinoic acid; and HC refers to 2.5×10^−6 M 22(R) hydroxycholesterol. Basal media from 3 wells were combined, concentrated, and apo E was detected by western blotting.

cultured human RPE cells = test: 14C-DHA labeled POS efflux into basal media after drug treatment; format: cell-based; details: 36 hours; 10^-7 M T3, 2.5x10^-5 M 22 (R) hydroxycholesterol or 10^-7 M cis retinoic acid; basal medium 1 mg/ml HDL; FIG. 10
Experimental: Bovine outer photoreceptor outer segments (POS) were labeled by incubating […] Coenzyme A, ATP, Mg^2+, and [^14C]-DHA. Cells grown on laminin coated Transwell plates were incubated with 12 μg/ml labeled POS in the apical chamber for 36 hours in medium containing 10% lipoprotein deficient fetal bovine serum. The basal medium was subjected to scintillation counting to determine the amount of [^14C] labeled lipids transported through the RPE cells.
This experiment determines whether compound administration can upregulate efflux of labeled POS residues to HDL, particularly by showing regulation of ^14C-DHA labeled POS efflux into basal media. An assay similar to that described in Example 4 is utilized; however, in this Example the cells were treated with T3, 9 cis-retinoic acid, and 22 (R) hydroxycholesterol in the concentrations described above for 36 hours. Total radioactivity (cpm) in the absence of HDL purification was determined by liquid scintillation counting of the basal media.
Specifically, cells were grown for 1 to 2 weeks at confluence on Transwell plates. ^14C-labeled POS […] were added to the apical medium. The apical and basal medium comprised either 10^−7 M T3, 2.5×10^−5 M 22 (R) hydroxycholesterol, or 10^−7 M cis retinoic acid. The basal medium contained 1 mg/ml HDL. After 36 hours the basal medium was collected and ^14C counts were determined by scintillation counting.

[3] = system: apo E secretion from RPE cells; test: Apo E secretion from RPE cells, ELISA; format: cell-based, human; details: 36 hours, serum free DMEM; 10^-7 M T3; 2.5x10^-6 M 22(R) hydroxycholesterol; 10^-7 M cis retinoic acid; alone and in combination; FIG. 14
Experimental: RPE cells were treated for 36 hours on Transwell® plates with serum free DMEM +/− the drugs indicated. Control refers to no drug addition, T refers to 10^−7 M T3; HC refers to 2.5×10^−6 M 22(R) hydroxycholesterol; RA refers to 10^−7 M cis retinoic acid. N=6, * indicates p<0.05 (two-tailed t-test) compared to Control.
Media samples treated with 0.1% Tween-20 containing 1% bovine serum albumin were incubated (37° C., 4 h) in 96-well plates previously coated with apo E-affinity purified goat anti-apo E antibody. Apo E was detected using a secondary antibody-peroxidase conjugate and 3.3.5.5′-[…] (TMB) substrate. Optical density was measured at 450 nm. The assay was calibrated with purified plasma apo E. The dynamic range of the assay was 1-40 ng/ml apo E with a CV<5%.

Row | Molecule | stimulation of 14C-labeled lipid efflux (in words) [1] | basal Apo E expression/secretion (Western blot of basal media) ([2]; listed as 9 cis-RA) | basal Apo E expression/secretion (Western blot of basal media) ([2]; listed as RA) | transport of 14C-labeled POS to the basal medium (cultured human RPE cells) | apo E secretion (ELISA) [3] | basal Apo E expression/secretion (Western blot of basal media) [2] | basal Apo E expression/secretion (Western blot of basal media) ([2]; listed as HC)
1 | ApoA-I: pure human apoA-I, purified from human plasma; major lipoprotein component of HDL | appeared to stimulate | – | – | – | – | – | –
2 | CC1=C(/C=C/C(C)=C\C=C\C(C)=C\C(=O)O)C(C)(C)CCC1 [cis retinoic acid, 9 cis-retinoic acid] | – | increased basal expression of Apo E | stimulate basal apo E secretion | increased transport of ^14C-labeled POS to the basal medium | upregulate apo E secretion | – | –
3 | N[C@@H](Cc1cc(I)c(Oc2ccc(O)c(I)c2)c(I)c1)C(=O)O [T3, 3,5,3′-L-triiodothyronine] | – | – | – | increased transport of ^14C-labeled POS to the basal medium | upregulate apo E secretion | increased basal expression of Apo E; also recorded: stimulate basal apo E secretion | –
4 | CC(C)CC[C@@H](O)[C@@H](C)[C@H]1CC[C@H]2[C@@H]3CC=C4C[C@@H](O)CC[C@]4(C)[C@H]3CC[C@]12C [22 (R) hydroxycholesterol] | – | – | – | increased transport of ^14C-labeled POS to the basal medium | upregulate apo E secretion | increased basal expression of Apo E | stimulate basal apo E secretion

Source: patent US7470660B2, “Treatment for dark adaptation” (The Regents of the University of California, priority 2001, dated 2008)
